Literature values, collected in patent publication US10335367B2, “Use of selected anticholinergic zwitterions” (Bodor Laboratories, Inc., priority 2015, dated 2019).
Where two headings read alike, the source gives them in different places.

Key:
progression of myopia = conditions: 2% ophthalmic gel; school-aged children

Structure (SMILES) | slowing the progression of myopia (progression of myopia) | mean myopia progression at 2 years (myopia progression; 0.01% atropine) [D/year] | mean myopia progression at 2 years (myopia progression; 0.1% atropine) [D/year] | mean myopia progression at 2 years (myopia progression; 0.5% atropine) [D/year]
CN1CCN(CC(=O)N2c3ccccc3C(=O)Nc3cccnc32)CC1 [Pirenzepine] | found effective |  |  | 
CN1[C@@H]2CC[C@H]1C[C@@H](OC(=O)C(CO)c1ccccc1)C2 (stereo partly shown) [atropine] |  | 0.24 | 0.19 | 0.15
